{"source": "patent US7649002B2", "about": "“(3,5-dimethylpiperidin-1yl)(4-phenylpyrrolidin-3-yl)methanone derivatives as MCR4 agonists” (Pfizer Inc, priority 2004, dated 2010)", "key": {"[1]": {"molecular_target": "T1, human MCR4 receptor (Homo sapiens, UniProt P32245)", "T1 construct": "expressed in transfected cells", "T1 sequence (P32245 whole entry)": "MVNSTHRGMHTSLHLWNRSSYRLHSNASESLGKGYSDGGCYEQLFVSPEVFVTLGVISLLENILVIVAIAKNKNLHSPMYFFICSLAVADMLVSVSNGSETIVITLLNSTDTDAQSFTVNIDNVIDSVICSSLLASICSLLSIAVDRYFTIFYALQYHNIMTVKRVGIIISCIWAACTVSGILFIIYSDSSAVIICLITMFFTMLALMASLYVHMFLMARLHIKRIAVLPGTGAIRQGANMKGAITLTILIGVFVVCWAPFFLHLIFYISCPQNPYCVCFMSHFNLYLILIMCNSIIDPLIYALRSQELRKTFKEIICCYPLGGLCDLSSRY", "assay": "MCR4 improved functional assay (Protocol E): CHO-K1-MC4R-CRE-β-lactamase reporter", "assay_type": "cell-based", "source_text": "(ii) MCR5 Standard Functional Assay Methodology and MCR4 Improved Functional Assay Methodology [Assay Protocol D and E Respectively] […] These cell lines were engineered using protocols akin to those outlined by Zaccolo et al (Zaccolo, M., (2000) Nature, 2(1); 25-29). Compound-induced activation of the MCR5 or MCR4 receptors in these two cell lines stimulated the production, and intracellular accumulation, of the enzyme β-lactamase. The quantity of β-lactamase enzyme produced was directly proportional to the degree to which the test compound activated the MCR5 or MCR4 receptors present on these cells and was quantified using the P-lactamase gene reporter analysis kit that is commercially available from Invitrogen Life Technologies. An in-depth description of this technology and assay protocols are available from the Invitrogen web site (www.invitrogen.com). The protocol listed below provides a summary of that assay methodology. The quantity of β-lactamase enzyme produced by compound-induced activation of the MCR5 or MCR4 receptors expressed in these cell lines was quantified using a LjI Biosystems Analyst™ HT 96.384 plate reader set to excite at a wave length of 405 nm, and measure the energy emitted at wave lengths of 450 nm and 530 nm. Cellular responses were quantified by dividing the measured energy emitted at a wavelength of 450 nm by the measured energy emitted at a wavelength of 530 nm. […] CCF4-AM was dissolved in 100% DMSO to give a final solution concentration of 1 mM. This solution was termed Solution A. Probenecid was dissolved in 200 mM NaOH to give a final solution concentration of 200 mM. This solution was termed Solution D. Composition of the β-lactamase assay dye solution: for 1072 μL of assay dye solution combine: 12 μL of Solution A, 60 μL of Solution B, 925 μL of Solution C and 75 μL of Solution D. […] Cells were grown in T225 vent cap flasks containing 50 ml of growth medium and maintained in a cell incubator at a temperature of 37° C. and in an environment containing 5% CO2. The composition of the growth medium for the CHO-K1-MC5R-CRE-β-lactamase was 90% v/v DMEM supplemented with; Glutamax-1, 25 mM HEPES, 10% v/v foetal calf serum (FCS), 1 mM sodium pyruvate, 0.1 mM non essential amino acids and 800 μg/ml genetic in. For the CHO-K1-MC4R-CRE-β-lactamase this growth media was further supplemented with […] Zeocin. Cells were harvested when they reached 80-90% confluency by first removing the existing growth medium and then washing with PBS that had been pre-warmed to a temperature of 37° C. This PBS was then removed and 5 ml of cell dissociation fluid added to the flask. These cells were incubated for 5 minutes in a cell incubator set at a temperature of 37° C. and in an environment containing 5% CO2 to detach the cells. When cells were detached, pre-warmed growth media was added, the cells re-suspended and mixed gently to achieve a single cell suspension by pipetting. This cell suspension was then used for experimentation, or transferred into a new T225 flask to perpetuate the cell culture. […] For each assay the cell plates were then retuned to a cell incubator maintained at a temperature of 37° C. and in an environment containing 5% CO2 overnight before performing the assay on the second assay day. […] For the MCR4 improved functional assay methodology the solution of cyclohexamide was not added. Subsequently, 10 μL of the test compound solution was transferred to the assay plate. The assay plate was then transferred to a cell incubator, set at 37° C. and in an environment containing 5% CO2, and left for 4 hours for the MCR4 improved assay methodology, or 5 hours for the MCR5 standard assay methodology. After this incubation period the plate was removed from the incubator, 10 μL of the […] assay dye solution was added to each well and then the plate returned to the cell incubator."}, "[2]": {"molecular_target": "T2, human MCR5 receptor (Homo sapiens, UniProt P33032)", "T2 construct": "expressed in transfected cells", "T2 sequence (P33032 whole entry)": "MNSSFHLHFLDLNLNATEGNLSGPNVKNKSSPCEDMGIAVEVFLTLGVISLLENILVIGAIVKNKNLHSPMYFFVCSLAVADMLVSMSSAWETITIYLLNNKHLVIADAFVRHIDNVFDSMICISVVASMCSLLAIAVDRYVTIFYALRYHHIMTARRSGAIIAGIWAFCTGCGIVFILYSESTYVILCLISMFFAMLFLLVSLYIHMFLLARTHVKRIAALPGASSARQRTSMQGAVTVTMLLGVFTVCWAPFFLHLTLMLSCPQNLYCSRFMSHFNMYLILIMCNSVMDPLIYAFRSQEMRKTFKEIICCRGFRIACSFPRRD", "assay": "MCR5 standard functional assay (Protocol D): CHO-K1-MC5R-CRE-β-lactamase reporter", "assay_type": "cell-based", "conditions": "Table 6; for Selectivity MCR5/MCR4: MCR4 by Protocol E; for EC50: Protocol D", "source_text": "These cell lines were engineered using protocols akin to those outlined by Zaccolo et al (Zaccolo, M., (2000) Nature, 2(1); 25-29). Compound-induced activation of the MCR5 or MCR4 receptors in these two cell lines stimulated the production, and intracellular accumulation, of the enzyme β-lactamase. The quantity of β-lactamase enzyme produced was directly proportional to the degree to which the test compound activated the MCR5 or MCR4 receptors present on these cells and was quantified using the P-lactamase gene reporter analysis kit that is commercially available from Invitrogen Life Technologies. An in-depth description of this technology and assay protocols are available from the Invitrogen web site (www.invitrogen.com). The protocol listed below provides a summary of that assay methodology. The quantity of β-lactamase enzyme produced by compound-induced activation of the MCR5 or MCR4 receptors expressed in these cell lines was quantified using a LjI Biosystems Analyst™ HT 96.384 plate reader set to excite at a wave length of 405 nm, and measure the energy emitted at wave lengths of 450 nm and 530 nm. Cellular responses were quantified by dividing the measured energy emitted at a wavelength of 450 nm by the measured energy emitted at a wavelength of 530 nm. […] CCF4-AM was dissolved in 100% DMSO to give a final solution concentration of 1 mM. This solution was termed Solution A. Probenecid was dissolved in 200 mM NaOH to give a final solution concentration of 200 mM. This solution was termed Solution D. Composition of the β-lactamase assay dye solution: for 1072 μL of assay dye solution combine: 12 μL of Solution A, 60 μL of Solution B, 925 μL of Solution C and 75 μL of Solution D. […] Cells were grown in T225 vent cap flasks containing 50 ml of growth medium and maintained in a cell incubator at a temperature of 37° C. and in an environment containing 5% CO2. The composition of the growth medium for the CHO-K1-MC5R-CRE-β-lactamase was 90% v/v DMEM supplemented with; Glutamax-1, 25 mM HEPES, 10% v/v foetal calf serum (FCS), 1 mM sodium pyruvate, 0.1 mM non essential amino acids and 800 μg/ml genetic in. For the CHO-K1-MC4R-CRE-β-lactamase this growth media was further supplemented with […] Zeocin. Cells were harvested when they reached 80-90% confluency by first removing the existing growth medium and then washing with PBS that had been pre-warmed to a temperature of 37° C. This PBS was then removed and 5 ml of cell dissociation fluid added to the flask. These cells were incubated for 5 minutes in a cell incubator set at a temperature of 37° C. and in an environment containing 5% CO2 to detach the cells. When cells were detached, pre-warmed growth media was added, the cells re-suspended and mixed gently to achieve a single cell suspension by pipetting. This cell suspension was then used for experimentation, or transferred into a new T225 flask to perpetuate the cell culture. On the first day of the assay cells were harvested as described above. […] For each assay the cell plates were then retuned to a cell incubator maintained at a temperature of 37° C. and in an environment containing 5% CO2 overnight before performing the assay on the second assay day. […] For the MCR4 improved functional assay methodology the solution of cyclohexamide was not added. Subsequently, 10 μL of the test compound solution was transferred to the assay plate. […] After this incubation period the plate was removed from the incubator, 10 μL of the […] assay dye solution was added to each well and then the plate returned to the cell incubator."}, "[3]": {"test_system": "men with psychogenic and organic ED", "conditions": "cited from earlier work"}, "[4]": {"conditions": "functional potency at the MC4 receptor (EC50), Protocols C or E"}}, "note": "Where a name gives a salt, the structure may show the parent alone. Read-outs that look alike come from different tables or passages of the source."}
{"molecule": "C[C@@H]1CN(C(=O)[C@@H]2CN(C(C)(C)C)C[C@H]2c2ccc(F)cc2F)C[C@H](C)[C@@]1(O)c1ccc(F)cc1F.Cl", "note": "[Example 15, (3R,4R,5S)-1-{[(3S,4R)-1-tert-butyl-4-(2,4-difluorophenyl)pyrrolidin-3-yl]carbonyl}-4-(2,4-difluorophenyl)-3,5-dimethylpiperidin-4-ol hydrochloride]", "values": [{"measurement": "EC50", "setting": "[1]; MCR4 EC50 (nM), Table 6", "value": 6.3, "unit": "nM"}, {"measurement": "EC50", "setting": "[1]; [4]", "value": "< 50", "unit": "nM"}, {"measurement": "Selectivity MCR5/MCR4", "setting": "[2]", "value": 556}, {"measurement": "EC50", "setting": "[2]", "value": 3500, "unit": "nM"}]}
{"molecule": "C[C@@H]1CN(C(=O)[C@@H]2CN(C(C)(C)C)C[C@H]2c2ccc(F)cc2F)C[C@H](C)[C@@]1(O)c1ccccn1.Cl", "note": "[Example 22, (3R,4R,5S)-1-[(3S,4R)-1-tert-Butyl-4-(2,4-difluorophenyl)pyrrolidin-3-yl]carbonyl-3,5-dimethyl-4-pyridin-2-ylpiperidin-4-ol hydrochloride]", "values": [{"measurement": "EC50", "setting": "[1]; Protocols C or E, read-out: functional potency at the MC4 receptor (EC50)", "value": "< 50", "unit": "nM"}, {"measurement": "EC50", "setting": "[1]; Table 6, read-out: MCR4 EC50", "value": 23, "unit": "nM"}, {"measurement": "Selectivity MCR5/MCR4", "setting": "[2]", "value": 772}, {"measurement": "EC50", "setting": "[2]", "value": 17800, "unit": "nM"}]}
{"molecule": "CCN1C[C@@H](C(=O)N2C[C@@H](C)[C@](O)(c3cccc(F)c3)[C@@H](C)C2)[C@H](c2ccc(F)cc2F)C1", "note": "[Example 53, (3R,4R,5S)-1-{[(3S,4R)-4-(2,4-difluorophenyl)-1-ethylpyrrolidin-3-yl]carbonyl}-4-(3-fluorophenyl)-3,5-dimethylpiperidin-4-ol hydrochloride]", "values": [{"measurement": "EC50", "setting": "[1]; [4]", "value": "< 50", "unit": "nM"}]}
{"molecule": "Melanotan II", "values": [{"measurement": "doses after which increased sexual desire was reported", "setting": "[3]; 13/19 doses, vs placebo P<0.01", "value": 68, "unit": "%"}, {"measurement": "subjects with severe nausea", "setting": "[3]; dose of 0.025 mg/kg", "value": 12.9, "unit": "%"}, {"measurement": "men with penile erection", "setting": "[3]; in the absence of sexual stimulation, 20 men with psychogenic and organic ED", "value": "17 of 20"}, {"measurement": "mean duration of Rigiscan tip rigidity>80%", "setting": "[3]; men with ED, monitored 6 hours", "value": 41, "unit": "min"}]}
